For eleven compounds, EC50 results are on record in patent US9290451B2 (Hoffmann-La Roche Inc., priority 2011, dated 2016).

One experiment concerns the target human CB1 receptors (Homo sapiens (Human), UniProt P21554). Nature of the experiment: cAMP assay, CHO cells expressing human CB1 receptors. The experiment is classed as cell-based. The settings on record: CHO cells expressing human CB1, cAMP; read-out: human CB1 EC50. The procedure, abridged:
(§1)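 In this cellular cAMP test, IBMX (1 mM) blocked phosphodiesterase during a 30-min, 30 °C compound exposure. Accumulated cAMP was measured by a lysis-based TR-FRET kit and interpolated from a standard curve to give EC50.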
A general note: Cyclic AMP is a second messenger, typically raised through Gs and lowered through Gi signalling.

Another experiment addresses human CB2 receptors (Homo sapiens (Human), UniProt P34972). Nature of the experiment: cAMP assay, CHO cells expressing human CB2 receptors. The experiment is classed as cell-based. The following applies: CHO cells expressing human CB2, cAMP; read-out: human CB2 EC50. An outline of the steps: as §1

Sequence of human CB1 receptors (P21554 whole entry): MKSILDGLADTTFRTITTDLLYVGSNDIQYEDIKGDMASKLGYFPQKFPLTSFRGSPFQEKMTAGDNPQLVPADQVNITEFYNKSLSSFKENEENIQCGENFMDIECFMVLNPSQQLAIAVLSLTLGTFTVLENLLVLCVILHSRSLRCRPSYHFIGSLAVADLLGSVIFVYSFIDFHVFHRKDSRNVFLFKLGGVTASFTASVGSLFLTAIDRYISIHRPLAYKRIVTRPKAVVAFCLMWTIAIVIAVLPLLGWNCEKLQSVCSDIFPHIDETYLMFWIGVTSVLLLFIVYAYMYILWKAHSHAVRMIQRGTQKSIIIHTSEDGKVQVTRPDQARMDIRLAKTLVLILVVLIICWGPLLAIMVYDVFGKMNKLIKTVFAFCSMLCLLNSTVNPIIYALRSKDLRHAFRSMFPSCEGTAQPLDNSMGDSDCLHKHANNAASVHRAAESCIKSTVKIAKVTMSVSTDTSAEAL
Sequence of human CB2 receptors (P34972 whole entry): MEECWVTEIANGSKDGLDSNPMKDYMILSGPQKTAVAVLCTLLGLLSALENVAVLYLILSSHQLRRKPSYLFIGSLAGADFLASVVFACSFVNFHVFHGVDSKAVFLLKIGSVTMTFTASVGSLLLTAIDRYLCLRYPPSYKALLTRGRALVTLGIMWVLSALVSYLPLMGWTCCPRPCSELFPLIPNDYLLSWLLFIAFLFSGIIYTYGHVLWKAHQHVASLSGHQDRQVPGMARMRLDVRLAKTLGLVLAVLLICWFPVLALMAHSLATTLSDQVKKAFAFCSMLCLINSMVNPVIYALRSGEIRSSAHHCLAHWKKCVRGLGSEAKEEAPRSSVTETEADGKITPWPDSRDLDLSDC

With `Cc1nc([C@H](CC2CC2)NC(=O)c2cccc(-c3ccc(F)c(C(F)(F)F)c3)n2)no1` [Example 348, 6-(4-Fluoro-3-trifluoromethyl-phenyl)-pyridine-2-carboxylic acid [(S)-2-cyclopropyl-1-(5-methyl-[1,2,4]oxadiazol-3-yl)-ethyl]-amide], the EC50 is more than 10000 nM on human CB1 receptors and 24.6 nM on human CB2 receptors.
In the case of `CC(C)(CCS(C)(=O)=O)NC(=O)c1ccc(C2CC2)c(OCC2CC2)n1` [Example 349, 5-Cyclopropyl-6-cyclopropylmethoxy-pyridine-2-carboxylic acid (3-methanesulfonyl-1,1-dimethyl-propyl)-amide], the EC50 is more than 10000 nM on human CB1 receptors and 477 nM on human CB2 receptors.
Consider `Cc1cnc(C(C)(C)NC(=O)c2ccc(C3CC3)c(OCC3CC3)n2)s1` [Example 350, 5-Cyclopropyl-6-cyclopropylmethoxy-pyridine-2-carboxylic acid [1-methyl-1-(5-methyl-thiazol-2-yl)-ethyl]-amide], for which the EC50 was more than 10000 nM at human CB1 receptors and 3.6 nM at human CB2 receptors.
The matching figures for `CC(C)C[C@H](NC(=O)c1ccc(C2CC2)c(S(=O)(=O)CC(C)C)n1)C(N)=O` [Example 351, 5-Cyclopropyl-6-(2-methyl-propane-1-sulfonyl)-pyridine-2-carboxylic acid ((S)-1-carbamoyl-3-methyl-butyl)-amide]: more than 10000 nM and 39.9 nM.
Consider `Cc1nc([C@H](CC2CC2)NC(=O)c2ccc(C3CC3)c(S(=O)(=O)CC(C)C)n2)no1` [Example 352, 5-Cyclopropyl-6-(2-methyl-propane-1-sulfonyl)-pyridine-2-carboxylic acid [(S)-2-cyclopropyl-1-(5-methyl-[1,2,4]oxadiazol-3-yl)-ethyl]-amide], for which the EC50 was more than 10000 nM on human CB1 receptors and 189 nM on human CB2 receptors.
As for `CC(C)C[C@@H](NC(=O)c1ccc(N2CC(F)(F)C2)c(OCC2CC2)n1)c1cccnn1` [Example 354, 6-Cyclopropylmethoxy-5-(3,3-difluoro-azetidin-1-yl)-pyridine-2-carboxylic acid ((R)-3-methyl-1-pyridazin-3-yl-butyl)-amide], the concentration giving a half-maximal response (EC50) is more than 10000 nM on human CB1 receptors and 14.9 nM on human CB2 receptors.
The matching figures for `CC(C)C[C@H](NC(=O)c1ccc(N2CC(F)(F)C2)c(OCC2CC2)n1)c1cccnn1` [Example 355, 6-Cyclopropylmethoxy-5-(3,3-difluoro-azetidin-1-yl)-pyridine-2-carboxylic acid ((S)-3-methyl-1-pyridazin-3-yl-butyl)-amide]: more than 10000 nM and 80.1 nM.
As for `CCC(CC)(NC(=O)c1ccc(C2CC2)c(OCC2CC2)n1)C(=O)NCCO` [Example 356, 5-Cyclopropyl-6-cyclopropylmethoxy-pyridine-2-carboxylic acid [1-ethyl-1-(2-hydroxy-ethylcarbamoyl)-propyl]-amide], the figures for the 50% effective concentration (EC50) at human CB1 receptors and on human CB2 receptors were more than 10000 nM and 5.2 nM, respectively.
The matching figures for `Cc1nc([C@](C)(CC2CC2)NC(=O)c2ccc(C3CC3)c(OCC3CC3)n2)no1` [Example 357, 5-Cyclopropyl-6-cyclopropylmethoxy-pyridine-2-carboxylic acid [(+)-2-cyclopropyl-1-methyl-1-(5-methyl-[1,2,4]oxadiazol-3-yl)-ethyl]-amide]: 199 nM and 1.5 nM.
Turning to `Cc1nc([C@@](C)(CC2CC2)NC(=O)c2ccc(C3CC3)c(OCC3CC3)n2)no1` [Example 358, 5-Cyclopropyl-6-cyclopropylmethoxy-pyridine-2-carboxylic acid [(−)-2-cyclopropyl-1-methyl-1-(5-methyl-[1,2,4]oxadiazol-3-yl)-ethyl]-amide], the concentration giving a half-maximal response (EC50) on human CB1 receptors came to 489 nM; at human CB2 receptors, 4.9 nM.
`CC(C)(C)NC(=O)c1ccc(N2CC(F)(F)C2)c(OCC2CC2)n1` [Example 359, 6-Cyclopropylmethoxy-5-(3,3-difluoro-azetidin-1-yl)-pyridine-2-carboxylic acid tert-butylamide]: the EC50 on human CB1 receptors is more than 10000 nM; at human CB2 receptors, 6.9 nM.

The term EC50 denotes the concentration needed to bring the measured effect to its halfway point.
